# Measurements as given in ChEMBL document CHEMBL5303573, “Mapping human microbiome drug metabolism by gut bacteria and their genes” (Nature, 2019).
# How the values were obtained:
# [1] = target: T1, Pyridine nucleotide-disulfide oxidoreductase (Collinsella aerofaciens, UniProt A4EBM5); assay: (§1) The drug is tested on Collinsella aerofaciens strain: ATCC25986 for biotransformation. The drug concentrations were measured before and after a 12-h incubation by liquid-chromatography-coupled mass spectrometry (LC–MS); assay type: ADME; set-up: dose 2 uM; settings: 2 µM
# T1 sequence (A4EBM5 whole entry): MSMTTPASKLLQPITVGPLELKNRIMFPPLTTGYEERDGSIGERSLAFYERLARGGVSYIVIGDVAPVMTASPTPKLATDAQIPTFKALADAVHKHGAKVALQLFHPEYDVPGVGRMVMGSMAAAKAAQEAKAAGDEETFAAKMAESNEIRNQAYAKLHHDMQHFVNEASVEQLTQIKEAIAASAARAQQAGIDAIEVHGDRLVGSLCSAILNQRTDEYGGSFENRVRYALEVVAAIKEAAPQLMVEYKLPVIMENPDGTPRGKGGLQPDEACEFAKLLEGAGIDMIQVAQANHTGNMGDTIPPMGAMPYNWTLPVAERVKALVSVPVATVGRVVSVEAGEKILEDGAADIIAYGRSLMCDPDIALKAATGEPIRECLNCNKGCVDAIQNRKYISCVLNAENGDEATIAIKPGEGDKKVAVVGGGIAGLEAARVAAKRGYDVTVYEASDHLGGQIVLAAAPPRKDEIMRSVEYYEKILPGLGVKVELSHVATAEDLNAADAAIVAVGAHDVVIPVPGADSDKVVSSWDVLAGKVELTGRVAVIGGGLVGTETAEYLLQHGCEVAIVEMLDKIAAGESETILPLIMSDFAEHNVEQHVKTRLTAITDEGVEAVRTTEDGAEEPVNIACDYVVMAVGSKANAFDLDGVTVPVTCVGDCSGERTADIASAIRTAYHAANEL
# Diguanylate cyclase = target: T2, Diguanylate cyclase (Collinsella aerofaciens, UniProt A4EB91); assay: as §1; assay type: ADME; set-up: dose 2 uM; settings: 2 µM
# T2 sequence (A4EB91 whole entry): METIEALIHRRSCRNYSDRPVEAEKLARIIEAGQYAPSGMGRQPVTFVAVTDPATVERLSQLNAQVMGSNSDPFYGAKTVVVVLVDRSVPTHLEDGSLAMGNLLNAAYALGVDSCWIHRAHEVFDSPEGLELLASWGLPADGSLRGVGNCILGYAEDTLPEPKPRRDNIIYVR
# GDSL-like protein = target: T3, GDSL-like protein (Collinsella aerofaciens, UniProt A4E7D0); assay: as §1; assay type: ADME; set-up: dose 2 uM; settings: 2 µM
# T3 sequence (A4E7D0 whole entry): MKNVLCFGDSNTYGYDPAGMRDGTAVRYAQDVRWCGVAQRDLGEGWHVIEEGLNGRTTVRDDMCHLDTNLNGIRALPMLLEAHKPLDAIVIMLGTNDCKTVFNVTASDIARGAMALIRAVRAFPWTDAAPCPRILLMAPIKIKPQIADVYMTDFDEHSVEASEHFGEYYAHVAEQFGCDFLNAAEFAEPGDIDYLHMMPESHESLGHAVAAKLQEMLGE
# Flavodoxin = target: T4, Flavodoxin (Collinsella aerofaciens, UniProt A4ED08); assay: as §1; assay type: ADME; set-up: dose 2 uM; settings: 2 µM
# T4 sequence (A4ED08 whole entry): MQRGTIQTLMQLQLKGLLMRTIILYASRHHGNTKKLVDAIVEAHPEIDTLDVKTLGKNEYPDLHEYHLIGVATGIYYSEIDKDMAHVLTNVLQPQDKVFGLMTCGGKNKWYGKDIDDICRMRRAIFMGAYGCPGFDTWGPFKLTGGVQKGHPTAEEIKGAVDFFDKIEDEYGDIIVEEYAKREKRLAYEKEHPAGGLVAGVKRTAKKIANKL
# Lipoprotein = target: T5, Lipoprotein (Bacteroides thetaiotaomicron, UniProt Q8A343); assay: (§2) The drug is tested on Bacteroides thetaiotaomicron strain: VPI-5482 for biotransformation. The drug concentrations were measured before and after a 12-h incubation by liquid-chromatography-coupled mass spectrometry (LC–MS); assay type: ADME; set-up: dose 2 uM; settings: 2 µM
# T5 sequence (Q8A343 whole entry): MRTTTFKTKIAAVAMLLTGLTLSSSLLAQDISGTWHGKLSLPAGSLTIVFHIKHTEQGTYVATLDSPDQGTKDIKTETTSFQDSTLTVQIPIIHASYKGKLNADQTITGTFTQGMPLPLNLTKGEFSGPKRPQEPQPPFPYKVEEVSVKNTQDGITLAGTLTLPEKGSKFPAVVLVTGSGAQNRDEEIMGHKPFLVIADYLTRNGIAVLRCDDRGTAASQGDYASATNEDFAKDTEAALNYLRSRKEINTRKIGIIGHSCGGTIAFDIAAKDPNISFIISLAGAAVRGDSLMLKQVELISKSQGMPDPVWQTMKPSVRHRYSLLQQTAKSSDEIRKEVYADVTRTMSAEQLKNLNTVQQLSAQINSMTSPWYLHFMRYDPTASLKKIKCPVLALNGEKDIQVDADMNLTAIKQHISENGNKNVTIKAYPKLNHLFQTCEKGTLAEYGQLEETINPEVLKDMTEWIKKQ
# Endoglucanase E (EGE) = target: T6, Endoglucanase E (EGE) (Bacteroides thetaiotaomicron, UniProt Q8AAL9); assay: as §2; assay type: ADME; set-up: dose 2 uM; settings: 2 µM
# T6 sequence (Q8AAL9 whole entry): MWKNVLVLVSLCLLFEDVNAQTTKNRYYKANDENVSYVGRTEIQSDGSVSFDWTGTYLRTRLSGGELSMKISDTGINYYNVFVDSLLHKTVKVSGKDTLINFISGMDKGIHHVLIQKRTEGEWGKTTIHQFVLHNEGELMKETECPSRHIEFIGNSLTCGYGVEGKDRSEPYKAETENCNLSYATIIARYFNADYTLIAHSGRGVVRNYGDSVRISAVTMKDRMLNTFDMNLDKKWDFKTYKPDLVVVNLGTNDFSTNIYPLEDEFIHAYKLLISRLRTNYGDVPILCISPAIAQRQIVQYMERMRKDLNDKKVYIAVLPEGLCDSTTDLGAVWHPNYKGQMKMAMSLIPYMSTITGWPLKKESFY
# [2] = The drug is tested on Salmonella typhimurium strain: LT2 for biotransformation. The drug concentrations were measured before and after a 12-h incubation by liquid-chromatography-coupled mass spectrometry (LC–MS); settings: salmonella enterica subsp. enterica, 2 µM
Bacterial Biotransformation [1],Bacterial Biotransformation (Diguanylate cyclase),Bacterial Biotransformation (GDSL-like protein),Bacterial Biotransformation (Flavodoxin),Bacterial Biotransformation (Lipoprotein),Bacterial Biotransformation (Endoglucanase E (EGE)),Bacterial Biotransformation [2],SMILES
Compound NOT metabolized,Compound NOT metabolized,Compound NOT metabolized,Compound NOT metabolized,Compound metabolized,Compound NOT metabolized,,CC(=O)SCC(Cc1ccccc1)C(=O)NCC(=O)OCc1ccccc1 (stereo not given) [RACECADOTRIL]
Compound NOT metabolized,Compound NOT metabolized,Compound metabolized,Compound NOT metabolized,Compound NOT metabolized,Compound metabolized,,CC(=O)Nc1ccc(OC(C)=O)cc1 [DIACETAMATE]
Compound NOT metabolized,Compound NOT metabolized,Compound metabolized,Compound NOT metabolized,Compound NOT metabolized,Compound metabolized,Compound metabolized,CC(=O)Oc1ccc(C(c2ccc(OC(C)=O)cc2)c2ccccn2)cc1 [BISACODYL]

SMILES,Bacterial Biotransformation [1],Bacterial Biotransformation (Diguanylate cyclase),Bacterial Biotransformation (GDSL-like protein),Bacterial Biotransformation (Flavodoxin),Bacterial Biotransformation (Lipoprotein),Bacterial Biotransformation (Endoglucanase E (EGE)),Bacterial Biotransformation [2]
C[C@@H]1CC[C@H]2[C@@H](C)C(=O)O[C@@H]3O[C@@]4(C)CC[C@@H]1[C@]32OO4 [ARTEMISININ],Compound NOT metabolized,Compound NOT metabolized,Compound NOT metabolized,Compound NOT metabolized,Compound NOT metabolized,Compound NOT metabolized,
